Assay results: patent US20220280541A1, “METHOD FOR IDENTIFYING CARBOHYDRATE DRUG-SENSITIVE PATIENT IN PATIENTS HAVING ALZHEIMER'S DISEASE” (SHANGHAI GREEN VALLEY PHARMACEUTICAL CO., LTD., priority 2019, published 2022)
Entries after “also recorded” stand apart in the source; their conditions may differ.

Experiments:
Th1 cells [1] = test: Flow cytometry of brain Th1 cells in 5XFAD (Tg) mice; assay type: in vivo, mouse; settings: 6-month-old 5XFAD mice, 50 mg/kg intraperitoneal daily for one month, versus vehicle
Description: Animals. Tg mice and co-housed WT mice (corresponding WT mice generated by mating Tg mice and C57 mice) were housed in the same cage after birth. […] All mice were kept in a 23° C. room with a 12-hour (h) light-dark cycle. Mice were randomly assigned to different groups before treatment. For time course analysis of Tg mice, male and female Tg mice were sacrificed at 2, 3, 5, 7 and 9 months of age. The mouse brain was collected and stained for immune cell analysis and cytokine analysis. […] For OM1 treatment, at the age of 6.5 months, based on 450 mg b.i.d. (twice a day) in the phase III trial, Tg mice were treated with 100 mg/kg OM1 by oral administration once a day for one month. […] The brains and feces of the mice were then used for different analyses.
Flow cytometry sample preparation and analysis. Mice were anesthetized, blood samples were collected into EDTA-containing tubes, and red blood cells were removed using 1×red blood lysis buffer. Before tissue collection, the brains were perfused with ice-cold PBS to avoid sampling the circulating blood immune cells, and the brains were removed, chopped into pieces and dissected according to the introduction of the Adult Brain Dissociation Kit (Miltenyi, Cat No. 130-107-677) using the gentleMACS dissociator (Miltenyi Biotec). The brain homogenate was filtered through a 70-μm cell strainer and centrifuged at 300×g for 5 min at 4° C. The cell pellet was resuspended in cold PBS buffer and centrifuged again at 300×g for 5 min at 4° C. All samples were counted and adjusted to a density of 2-3×10^6/100 μL, labeled with a Live/Dead kit for 30 min, and then centrifuged at 500×g for 3 min at 4° C. The cells were resuspended in 100 μL PBS buffer, blocked with anti-CD16/32 (Biolegend, Cat No. 101320) for 10 min, and incubated with the antibody according to the manufacturers' protocols at 4° C. for 30 min. […]

SLC7A5 = biological target: T1, SLC7A5 (Mus musculus, UniProt Q9Z127); test: Uptake of ^13C-labelled phenylalanine by naive CD4^+ T cells; assay type: cell-based; settings: 0.5 h incubation
T1 construct: endogenous in cells; host or cells: naive CD4+ T cells from splenocytes of C57BL/6 mice (Th0 and IL-12-induced Th1)
T1 sequence (Q9Z127 whole entry): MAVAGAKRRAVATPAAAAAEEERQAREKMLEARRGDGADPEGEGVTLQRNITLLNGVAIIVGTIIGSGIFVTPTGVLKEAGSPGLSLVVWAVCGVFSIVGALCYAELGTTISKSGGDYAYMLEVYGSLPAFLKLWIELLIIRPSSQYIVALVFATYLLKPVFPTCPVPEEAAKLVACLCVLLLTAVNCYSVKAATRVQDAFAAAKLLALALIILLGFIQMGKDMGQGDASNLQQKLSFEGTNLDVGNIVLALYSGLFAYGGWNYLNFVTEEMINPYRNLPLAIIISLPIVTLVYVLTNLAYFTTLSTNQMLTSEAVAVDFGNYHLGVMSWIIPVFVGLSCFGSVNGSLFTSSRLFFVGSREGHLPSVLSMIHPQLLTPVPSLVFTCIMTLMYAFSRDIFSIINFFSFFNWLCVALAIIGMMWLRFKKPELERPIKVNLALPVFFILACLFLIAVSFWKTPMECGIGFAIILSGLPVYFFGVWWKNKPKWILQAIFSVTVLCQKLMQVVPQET
T1 sequence (P10852 whole entry partner): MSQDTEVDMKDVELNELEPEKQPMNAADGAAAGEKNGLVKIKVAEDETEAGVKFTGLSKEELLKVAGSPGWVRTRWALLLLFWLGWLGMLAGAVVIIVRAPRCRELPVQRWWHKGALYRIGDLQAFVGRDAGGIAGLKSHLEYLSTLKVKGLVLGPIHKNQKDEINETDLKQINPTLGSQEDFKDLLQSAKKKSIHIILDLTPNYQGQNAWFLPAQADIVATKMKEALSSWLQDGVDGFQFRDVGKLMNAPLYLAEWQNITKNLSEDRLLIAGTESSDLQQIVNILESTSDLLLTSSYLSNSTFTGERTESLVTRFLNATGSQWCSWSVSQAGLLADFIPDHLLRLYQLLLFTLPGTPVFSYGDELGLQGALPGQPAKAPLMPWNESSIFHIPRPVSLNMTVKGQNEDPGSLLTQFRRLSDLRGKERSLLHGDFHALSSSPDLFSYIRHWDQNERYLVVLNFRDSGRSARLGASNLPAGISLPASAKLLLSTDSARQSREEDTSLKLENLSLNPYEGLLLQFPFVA
Description: Uptake of phenylalanine. Naive CD4^+ T cells were separated from the splenocytes of 8-month-old C57BL/6 female mice using the Naive CD4^+ T cell Isolation Kit (Stem Cell, Cat No. 19765) and were induced to Th1 differentiation by 20 ng/mL IL-12. After 3 days, a total of 5×10^5 cells/well Th1 cells and Th0 cells in 0.5 mL of RPMI-1640 medium were plated into 48-well plates. ^13C-labelled phenylalanine and 5 mM amino transporter inhibitor BCH were added into indicated wells. After 0.5 h, cells were collected and washed twice with ice-cold D-PBS. 50 μL deionized water was added and cells were lysed through freezing and thawing twice at −80° C. The cell lysate was centrifuged at 12000×g for 10 min and ^13C-labelled phenylalanine in the supernatant was analyzed by Mass spectrometry.

LAT1 = LAT1 (Homo sapiens, UniProt Q01650); settings: cited from earlier work
Sequence of LAT1 (Q01650 whole entry, species assumed): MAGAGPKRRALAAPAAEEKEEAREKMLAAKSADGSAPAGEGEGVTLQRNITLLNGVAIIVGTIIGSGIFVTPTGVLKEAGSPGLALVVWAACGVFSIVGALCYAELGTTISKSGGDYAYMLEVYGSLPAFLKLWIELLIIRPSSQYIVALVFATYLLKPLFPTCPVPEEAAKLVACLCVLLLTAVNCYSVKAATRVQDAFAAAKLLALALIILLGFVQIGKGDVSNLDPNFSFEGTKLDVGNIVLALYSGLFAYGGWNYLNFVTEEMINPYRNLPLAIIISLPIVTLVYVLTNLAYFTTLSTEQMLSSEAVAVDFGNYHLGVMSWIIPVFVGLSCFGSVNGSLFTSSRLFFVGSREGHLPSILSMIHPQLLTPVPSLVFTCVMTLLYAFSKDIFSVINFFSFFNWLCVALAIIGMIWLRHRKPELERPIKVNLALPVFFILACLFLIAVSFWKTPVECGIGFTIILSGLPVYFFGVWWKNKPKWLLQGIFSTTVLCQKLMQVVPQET
Sequence of LAT1 (P08195 102-630 partner, species assumed): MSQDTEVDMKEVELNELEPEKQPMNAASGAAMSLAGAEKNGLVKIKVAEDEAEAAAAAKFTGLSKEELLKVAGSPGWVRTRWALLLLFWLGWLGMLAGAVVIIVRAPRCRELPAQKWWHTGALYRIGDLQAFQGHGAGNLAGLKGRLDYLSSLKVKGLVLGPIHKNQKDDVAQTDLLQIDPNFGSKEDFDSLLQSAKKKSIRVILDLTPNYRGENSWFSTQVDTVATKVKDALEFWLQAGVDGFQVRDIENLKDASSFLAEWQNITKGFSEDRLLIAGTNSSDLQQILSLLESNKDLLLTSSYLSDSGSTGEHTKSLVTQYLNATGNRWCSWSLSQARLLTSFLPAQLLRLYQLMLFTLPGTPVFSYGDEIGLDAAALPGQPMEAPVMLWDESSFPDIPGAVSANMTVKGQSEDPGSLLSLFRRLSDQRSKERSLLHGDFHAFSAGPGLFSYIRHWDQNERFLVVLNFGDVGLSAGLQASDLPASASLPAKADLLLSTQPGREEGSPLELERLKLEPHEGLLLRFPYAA

naive CD4^+ T cells = test: In vitro differentiation and proliferation induced by phenylalanine and isoleucine; assay type: cell-based, mouse; settings: amino acid added directly to naive CD4^+ T cell culture
Description: In Vitro differentiation and proliferation induced by phenylalanine and isoleucine. Naive CD4^+ T cells were separated from the splenocytes of 8-month-old C57BL/6 female mice using the Naive CD4^+ T cell Isolation Kit (Stem Cell, #19765), and the cells were stained with CellTrace (Thermo Fisher, #C34557). A total of 1×10^5 cells/well in 0.2 mL of RPMI-1640 medium were plated in 96-well plates, and the culture medium was supplemented with cytokines or blocking antibodies. Th0: 10 ng/mL mIL-2; Th1:10 ng/mL mIL-2, 5000 ng/mL 11B11. Phenylalanine (final concentration, 2 mmol/L), isoleucine (final concentration, 2 mmol/L) and OM1 (final concentration, 100 μg/mL) were added into the indicated wells, respectively. After incubation at 37° C. in 5% CO2 for 5 days, cells were acquired on a BD Fortessa cytometer, and data were analyzed using FlowJo software.

Th1 cells [2] = test: Intraperitoneal injection of phenylalanine and isoleucine, blood Th1 cells; assay type: in vivo, mouse; settings: WT (C57) mice, intraperitoneal injection 50 mg/kg for 4 days
Description: Animals. Tg mice and co-housed WT mice (corresponding WT mice generated by mating Tg mice and C57 mice) were housed in the same cage after birth. WT mice (C57) were housed in separate cages to avoid cross-transfer of microbiota. All mice were kept in a 23° C. room with a 12-hour (h) light-dark cycle. Mice were randomly assigned to different groups before treatment. For time course analysis of Tg mice, male and female Tg mice were sacrificed at 2, 3, 5, 7 and 9 months of age. The mouse brain was collected and stained for immune cell analysis and cytokine analysis. Before the mice were sacrificed, feces were collected for gut microbiota analysis. For OM1 treatment, at the age of 6.5 months, based on 450 mg b.i.d. (twice a day) in the phase III trial, Tg mice were treated with 100 mg/kg OM1 by oral administration once a day for one month. Behavioral tests were performed to monitor cognitive activity after the last treatment. […] All mouse movements that occur in PhenoTyper (HomeCage) are recorded by a computerized tracking system, which calculates the time and number of entrances required to reach 80% of the performance standard (Noldus, Ethovision). […]
Flow cytometry sample preparation and analysis. […] All samples were counted and adjusted to a density of 2-3×10^6/100 μL, labeled with a Live/Dead kit for 30 min, and then centrifuged at 500×g for 3 min at 4° C. […]

| uptake of ^13C-labelled phenylalanine by CD4^+ T cells (SLC7A5) | Compound | proportion of pro-inflammatory Th1 cells in the mouse brain (Th1 cells [1]; 50 mg/kg) | proportion of pro-inflammatory Th1 cells in the mouse brain (Th1 cells [1]; listed as JPH 203, 50 mg/kg) | LAT1 inhibition, selectivity (LAT1) | Th0 cell differentiation into Th1 cells (naive CD4^+ T cells) | Th1 cell proliferation (naive CD4^+ T cells) | Th1 cell count in the blood (Th1 cells [2]) |
| --- | --- | --- | --- | --- | --- | --- | --- |
| blocked | Nc1cc(COc2c(Cl)cc(C[C@H](N)C(=O)O)cc2Cl)c2oc(-c3ccccc3)nc2c1 [JPH203] | effectively inhibits; also recorded: significantly downregulated | significantly reduces | selectively inhibits LAT1 | – | – | – |
| – | CC[C@H](C)[C@H](N)C(=O)O [isoleucine] | – | – | – | increased | increased | increased significantly |
| – | N[C@@H](Cc1ccccc1)C(=O)O [phenylalanine] | – | – | – | increased | increased | increased significantly |
